Experiments:
Format in all cases: cell-based
HeLa cells = experiment: Confocal microscopy imaging of HeLa cells treated with complexes; details: 50 μM, 37° C., 1 h, excitation 405 nm
Protocol: (§1) Experiments were conducted to show the working of the staining dye of the present invention. HeLa and MCF-7 cells were grown on sterile glass coverslips in a 60-mm tissue culture dish and incubated at 37° C. under a 5% CO2 atmosphere for 48 h. The culture medium was removed and replaced with medium/DMSO (99:1, v/v) containing the complex at a concentration of 50 μM. After incubation for 1 h, the coverslips were washed with PBS (5 mL×3), and then mounted onto slides for measurements. Imaging was performed using a confocal microscope (Leica TCS SPE) with an excitation wavelength at 405 nm. The emission was measured using a long-pass filter at 532 nm. FIG. 6 illustrates experimental results with fluorescence laser-scanning confocal microscopy images of HeLa cells treated with complexes (50 μM) at 37° C. for 1 h. FIG. 7 illustrates experimental results with fluorescence laser-scanning confocal microscopy images of MCF-7 cells treated with complexes (50 μM) at 37° C. for 1 h.

MCF-7 cells [1] = experiment: Confocal microscopy imaging of MCF-7 cells treated with complexes; details: 50 μM, 37° C., 1 h, excitation 405 nm
Protocol: as §1

MCF-7 cells [2] = experiment: Co-staining with CellMask deep red plasma membrane stain; details: complex 50 μM 1 h, CellMask deep red plasma membrane stain 0.25 μL/ml 5 min
Protocol: Further experiments were conducted to co-stain cells with the complex [Ir(ppyCH2NH—C10)2(bpy-tris)]Cl and the CellMask™ deep red plasma membrane stain. […] Please see FIG. 8 showing fluorescence laser-scanning confocal microscopy images of MCF-7 cells treated with the bpy-tris complex (50 μM, 1 h) and the CellMask™ deep red plasma membrane stain (0.25 μL/ml, 5 min).

Row | Compound | cellular staining pattern (membrane staining / localization) (HeLa cells) | cellular staining pattern (membrane staining / localization) (MCF-7 cells [1]) | colocalization coefficient (MCF-7 cells [2]) [%]
1 | Cc1ccnc(-c2cc(C(=O)O)ccn2)c1 [bpy-COOH] | much better membrane staining | much better membrane staining | 
2 | [Ir(ppyCH2NH—C10)2(bpy-tris)]Cl | much better membrane staining | much better membrane staining | 92.9

Reference: patent US9441003B2, “Membrane staining dyes containing phosphorescent transition metal polypyridine complexes” (City University of Hong Kong, priority 2014, dated 2016)
